In publication PMC6480711, “The Molecular and Structural Basis of O-methylation Reaction in Coumarin Biosynthesis in Peucedanum praeruptorum Dunn” (International Journal of Molecular Sciences, 2019):

Assays:
PpBMT = molecular target: T1, PpBMT (Kitagawia praeruptora, UniProt A0A166U5H3); assay: HPLC product analysis; type: biochemical; details: co-substrate SAM; product bergapten
T1 construct: gene BMT; recombinant, construct as in the authors' previous report

COMT-S = molecular target: T2, COMT-S (Kitagawia praeruptora, UniProt A0A4P8DY91); assay: isothermal titration calorimetry; type: binding; details: 25 mM Tris-HCl pH 8.0, 150 mM NaCl, 25 °C; cofactor analogue (product of SAM)
T2 construct: full-length CDS in pET28a, 6xHis tag, E. coli BL21 (DE3), Superdex 200
T2 sequence (A0A4P8DY91 1-364): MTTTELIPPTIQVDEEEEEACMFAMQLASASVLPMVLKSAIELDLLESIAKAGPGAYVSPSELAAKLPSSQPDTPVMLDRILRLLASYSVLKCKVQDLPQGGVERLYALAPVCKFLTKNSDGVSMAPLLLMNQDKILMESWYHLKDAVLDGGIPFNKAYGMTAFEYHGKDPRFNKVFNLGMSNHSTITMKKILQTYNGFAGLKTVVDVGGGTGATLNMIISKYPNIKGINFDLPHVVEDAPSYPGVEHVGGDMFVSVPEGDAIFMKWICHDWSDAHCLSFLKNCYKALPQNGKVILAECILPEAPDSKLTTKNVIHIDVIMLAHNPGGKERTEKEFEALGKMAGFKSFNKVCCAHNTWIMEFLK

T1 sequence (A0A166U5H3 whole entry): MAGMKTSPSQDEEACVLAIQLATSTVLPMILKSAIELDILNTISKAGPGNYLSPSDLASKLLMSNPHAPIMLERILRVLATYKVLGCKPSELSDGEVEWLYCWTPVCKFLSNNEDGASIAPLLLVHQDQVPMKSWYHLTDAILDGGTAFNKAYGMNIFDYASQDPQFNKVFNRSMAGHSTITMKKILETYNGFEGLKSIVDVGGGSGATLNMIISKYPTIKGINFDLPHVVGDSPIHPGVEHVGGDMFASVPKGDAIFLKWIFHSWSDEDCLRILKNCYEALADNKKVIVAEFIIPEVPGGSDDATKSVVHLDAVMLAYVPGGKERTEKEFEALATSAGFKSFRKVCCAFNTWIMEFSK

SMILES	HPLC product analysis (PpBMT)	equilibrium dissociation constant (COMT-S)
O=c1ccc2c(O)c3ccoc3cc2o1 [bergaptol]	COMT-S could accept esculetin, bergaptol, and xanthotoxl as substrates, while BMT could only catalyze bergaptol	
Nc1ncnc2c1ncn2[C@@H]1O[C@H](CSCC[C@H](N)C(=O)O)[C@@H](O)[C@H]1O [SAH]		The equilibrium dissociation constants of PpBMT/COMT–SAH interactions were determined by an MicroCal Auto-ITC200 calorimeter
